How the values were obtained:
[1] = test system: PD-L1 suppressed human T-cells; assay: Activation of T-Cell Suppressed by PD-L1 (IFN-g readout); type: cell-based; settings: human T cells co-cultured with Hep3B cells transfected with human PD-L1; dose dependent; Keytruda positive control
From the text: To measure the cellular activity of the compound, a protocol of Activation of T-Cell Suppressed by PD-L1 was used. In this protocol, human Hep3B cells were stably transfected with human PD-L1. The human T cells containing PD-1 were inactivated by co-culturing with these PD-L1 transfected cells. Then anti-PD-1 antibody Keytruda® was selected as the reference to profile the compound for its activation of PD-L1 suppressed human T-cells.

[2] = test system: MC-38-hPD-L1 tumor cells; assay: Anti-tumor efficacy in MC-38-hPD-L1 models; type: in vivo; settings: for TGI / Tumor Volume: MC-38-hPD-L1, C57BL/6-hPD-1 mice, BID, 19 days
Experimental: Materials required for the experiment: Antibody: PD-L1 antibody Durvalumab, Product specifications: 120 mg/2.4 mL(50 mg/mL), Lot No.: 041E17C, Manufacture: AstraZeneca, purchased from Hongkong Mingchuang Medical Limited, storage at 2-8° C. Experimental animal: 120 C57BL/6-hPD-1 mice, female, 6˜8 weeks old, 18˜21 g, purchased from Jiangsu Gem Pharmatech Co. Ltd. Formulation material: castor oil (Cremophor RH40), CAS No.: 61788-85-0, Lot No.: 29761847G0, purchased from Shanghai Xietai Chemical Co. Ltd.; β-cyclodextrin (SBE-β-CD), CAS No.: 128446-35-5, Lot No.: R1804474, purchased from Shanghai Shaoyuan Chemical Co. Ltd.; DMEM culture medium, CAS No.: 11995-065, Lot No.: 2025378, purchased from Gibco Co. Ltd.; PBS, Art. No.: SH30256.01, Lot No.: AB10141338, purchased from HyClone Co. Ltd.; Fetal bovine serum: CAS No.: 10099-141, Lot No.: 1966174C, purchased from Gibco Co. Ltd.; hygromycinB: CAS No.: 10687010, Lot No.: HY069-L12 purchased from Invitrogen.
Cell culture: The MC-38 tumor cells (NCI) were maintained in vitro as a monolayer culture in DMEM medium supplemented with 10% heat inactivated fetal bovine serum, 100 μg/mL hygromycinB at 37° C. in an atmosphere of 5% CO2 in air. The tumor cells were routinely subcultured three times weekly by trypsin-EDTA treatment. The cells growing to a confluency around 70%-80% were harvested and counted for tumor inoculation.
Tumor cell inoculation and group administration: The 100 uL cell suspension containing 1×10^6 MC-38-hPD-L1 tumor cells (cells suspended in base DMEM medium) was inoculated into right dorsal subcutaneous area in mice. 6 days after inoculation, 60 tumor-bearing mice with transplanted tumors ranging from 31.49 mm^3 to 110.26 mm^3 were selected, stratified randomization was used to group and start the administration on the day of grouping.
Preparation of test substances: Preparation of formulation: 800 mL of sterile water was added into the volumetric flask with magnetic stirring to have a vortex. 100 g of castor oil (Cremophor RH40) was added with a spoon slowly into the vortex and the solution was kept stirring. 200 g of β-cyclodextrin (SBE-β-CD) was added while the solution was kept stirring until the solution was clear, and the total volume was set to 1000 mL, which contained 10% (w/v) Cremophor RH40+20% (w/v) an aqueous solution of SBE-β-CD.
Preparation of Compound Suspension: 150.92 mg compound was weighed and 12.5 mL 10% (w/v) Cremophor RH40+20% (w/v) SBE-β-CD aqueous solution were added. The suspension solution with a concentration of 12.0 mg/mL was obtained by vortex for 2 minutes and ultrasound for 30 minutes. 5.0 mL of the compound suspension solution with concentration of 12.0 mg/mL was pipetted and 5.0 mL aqueous formulation solution was added. The suspension solution with a concentration of 6.0 mg/mL was obtained by vortex for 1 minute and sonicated by ultrasound for 5 minutes. 2.0 mL of the compound suspension solution with concentration of 6.0 mg/mL was pipetted and […] was added. The suspension solution with a concentration of 3.0 mg/mL was obtained by vortex for 1 minute and sonicated by ultrasound for 5 minutes. Compound suspension solution was prepared once a day.
Preparation of hPD-L1 antibody: 0.12 mL PD-L1 antibody Durvalumab (50 mg/mL) original solution was pipetted and divided into […] in 5 mL sterile centrifugal tube, which were packed with each containing 6.0 mg. They were stored in refrigerator at 4° C. Before administration, a raw solution containing 0.12 mL and 50 mg/mL was taken, and 2.88 mL 0.9% sodium chloride solution was added to make the solution thoroughly mixed. 3 mL Duvalumab solution with the concentration 2 mg/mL was obtained.
Procedure: The mice in the vehicle group were weighed and recorded in the electronic balance according to their numbers. […]

`Cc1c(/C=C/c2cc(CN[C@@](C)(CO)C(=O)O)ccc2C(F)(F)F)cccc1-c1ccccc1` [Compound] was tested, and the “activation of PD-L1 suppressed human T cell, indicated by increase of cytokine IFN-g” value [1] was “effectively restored the activation”, the “tolerability (adverse reactions)” value ([2]; C57BL/6-hPD-1 mice, PO, BID up to 120 mg/kg) was “well tolerated” and the TGI ([2]; 30 mg/kg, PO) was 24.95%. For the same compound, the “Tumor Volume” value ([2]; 30 mg/kg, PO) was 459.82 ± 58.24 mm^3, the TGI ([2]; 60 mg/kg, PO) was 29.06% and the “Tumor Volume” value ([2]; 60 mg/kg, PO) was 439.04 ± 51.23 mm^3. For the same compound, the TGI ([2]; 120 mg/kg, PO) was 51.21%, the “Tumor Volume” value ([2]; 120 mg/kg, PO) was 325.23 ± 38.59 mm^3 and the “growth of subcutaneous MC-38-hPD-L1 tumors in mice” value ([2]; MC-38-hPD-L1 model, C57BL/6-hPD-1 mice) was “significantly inhibit the growth”.
